Paper PMC6240092, “NUAK2 is a critical YAP target in liver cancer” (Nature Communications, 2018)

Molecular target: T1, NUAK2 (Homo sapiens, UniProt Q9H093)
T1 construct: N-terminal GST-tagged NUAK2, expressed in HEK-293 cells and purified by glutathione-sepharose
T1 sequence (Q9H093 1-628): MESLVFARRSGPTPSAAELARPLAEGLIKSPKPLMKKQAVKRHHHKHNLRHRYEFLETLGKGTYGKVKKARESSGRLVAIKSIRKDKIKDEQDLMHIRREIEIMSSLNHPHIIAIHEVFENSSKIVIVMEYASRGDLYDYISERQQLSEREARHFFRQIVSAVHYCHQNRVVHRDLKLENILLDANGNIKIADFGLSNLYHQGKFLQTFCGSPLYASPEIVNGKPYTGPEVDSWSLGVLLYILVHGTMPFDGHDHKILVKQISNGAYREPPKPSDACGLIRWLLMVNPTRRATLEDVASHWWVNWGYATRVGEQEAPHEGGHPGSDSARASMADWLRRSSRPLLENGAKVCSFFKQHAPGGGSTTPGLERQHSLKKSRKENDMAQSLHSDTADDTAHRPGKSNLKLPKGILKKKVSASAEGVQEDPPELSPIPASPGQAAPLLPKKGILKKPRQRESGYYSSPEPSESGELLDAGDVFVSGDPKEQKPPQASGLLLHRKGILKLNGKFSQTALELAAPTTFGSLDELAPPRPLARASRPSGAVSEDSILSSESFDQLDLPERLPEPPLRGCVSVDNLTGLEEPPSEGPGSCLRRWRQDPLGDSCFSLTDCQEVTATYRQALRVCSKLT
Assay: radiometric peptide kinase assay with [γ-32P]ATP ([…]) and Sakamototide ([…])
Type: biochemical

CCC(=O)Nc1cccc(Oc2nc(Nc3ccc(N4CCN(C)CC4)cc3OC)ncc2I)c1 [HTH-02-006]
IC50: 126 nM
